13 compounds from patent US20120142667A1, “PYRIMIDINE DERIVATIVES AS ZAP-70 INHIBITORS” (priority 2009, published 2012) can be followed below.

Where a name gives a salt, the structure may show the parent alone.

The test has as its target T1, ZAP-70 (Homo sapiens, UniProt P43403).
T1 construct: endogenous in cells; host or cells: cell lysate
T1 sequence (P43403 1-619): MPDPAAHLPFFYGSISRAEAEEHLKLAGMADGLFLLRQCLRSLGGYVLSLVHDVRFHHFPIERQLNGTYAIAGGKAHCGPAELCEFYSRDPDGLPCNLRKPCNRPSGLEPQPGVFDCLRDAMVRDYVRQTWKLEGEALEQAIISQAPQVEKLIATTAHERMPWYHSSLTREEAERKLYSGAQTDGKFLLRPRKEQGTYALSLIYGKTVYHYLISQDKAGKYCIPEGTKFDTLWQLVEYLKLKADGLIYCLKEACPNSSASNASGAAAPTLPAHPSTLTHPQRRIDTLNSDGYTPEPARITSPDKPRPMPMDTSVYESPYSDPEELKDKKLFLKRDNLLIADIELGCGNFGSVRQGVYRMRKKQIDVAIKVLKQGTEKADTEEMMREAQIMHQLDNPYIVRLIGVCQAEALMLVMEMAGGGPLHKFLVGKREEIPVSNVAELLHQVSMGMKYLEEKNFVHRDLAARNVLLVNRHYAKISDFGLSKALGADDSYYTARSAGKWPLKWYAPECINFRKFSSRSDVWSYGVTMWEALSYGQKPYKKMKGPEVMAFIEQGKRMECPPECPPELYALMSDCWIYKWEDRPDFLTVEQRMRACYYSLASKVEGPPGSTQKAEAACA
Briefly: ZAP-70 kinobeads assay. Format: binding. Conditions: cell lysate. Here is the method: The compounds of the present invention as described in the previous examples can be tested in the ZAP-70 kinobeads assay as described (EP-A 1862802 and WO-A 2007/137867). Briefly, test compounds (at various concentrations) and the affinity matrix with the immobilized aminopyrido-pyrimidine ligand 24 are added to cell lysate aliquots and allowed to bind to the proteins in the lysate sample. After the incubation time the beads with captured proteins are separated from the lysate. Bound proteins are then eluted and the presence ZAP-70 is detected and quantified using a specific antibody in a dot blot procedure and the Odyssey infrared detection system.
Regarding `COc1cccc(Nc2ncc(Br)c(Nc3ccccc3NS(C)(=O)=O)n2)c1OC` [Example 9, N-(2-(5-bromo-2-(2,3-dimethoxyphenylamino)pyrimidin-4-ylamino)phenyl)methanesulfonamide], the IC50 lay within 1000 to 10000 nM.
As to `COc1ccc(Nc2nc(Nc3cc(OC)c(OC)cc3OC)ncc2F)c(NS(C)(=O)=O)c1` [Example 25, N-(2-(5-fluoro-2-(2,4,5-trimethoxyphenylamino)pyrimidin-4-ylamino)-5-methoxyphenyl)methanesulfonamide], the IC50 fell in the range of 100 to 1000 nM.
In turn, `COc1ccc(Nc2ncc(F)c(Nc3ccccc3NS(C)(=O)=O)n2)c(OC)c1` [Example 14, N-(2-(2-(2,4-dimethoxyphenylamino)-5-fluoropyrimidin-4-ylamino)phenyl)methanesulfonamide] had an IC50 of 1000 to 10000 nM.
Compound `COc1ccc(Nc2nc(Nc3cccc(OCCC(F)(F)F)c3C)ncc2Cl)c(NS(C)(=O)=O)c1` [Example 98, N-(2-((5-chloro-2-((2-methyl-3-(3,3,3-trifluoropropoxy)phenyl)amino)pyrimidin-4-yl)amino)-5-methoxyphenyl)methanesulfonamide] came in with an IC50 of 100 to 1000 nM.
Take `COc1ccc(Nc2nc(Nc3ccc(C)cc3C)ncc2Cl)c(NS(C)(=O)=O)c1` [Example 59, N-(2-(5-chloro-2-(2,4-dimethylphenylamino)pyrimidin-4-ylamino)-5-methoxyphenyl)methanesulfonamide hydrochloride]: the IC50 fell in the range of 100 to 1000 nM.
In the case of `COC(=O)CCc1ccc(OC)c(Nc2ncc(Cl)c(Nc3ccc(OC)cc3NS(C)(=O)=O)n2)c1` [Example 115, Methyl 3-(3-(5-chloro-4-(4-methoxy-2-(methylsulfonamido)phenylamino)pyrimidin-2-ylamino)-4-methoxyphenyl)propanoate], the IC50 was 1000 to 10000 nM.
In turn, `COc1ccc(Nc2nc(Nc3cc(OCCO)c(OC)cc3C)ncc2Cl)c(NS(C)(=O)=O)c1` [Example 114, N-(2-(5-chloro-2-(5-(2-hydroxyethoxy)-4-methoxy-2-methylphenylamino)pyrimidin-4-ylamino)-5-methoxyphenyl)methanesulfonamide] returned an IC50 of 1000 to 10000 nM.
As for `CS(=O)(=O)Nc1ccccc1Nc1nc(Nc2cc(F)ccc2F)ncc1F` [Example 10, N-(2-(2-(2,5-difluorophenylamino)-5-fluoropyrimidin-4-ylamino)phenyl)methanesulfonamide], the IC50 is 1000 to 10000 nM.
As for `COc1ccc(Nc2nc(Nc3cccc(OC)c3OC)ncc2Cl)c(NS(C)(=O)=O)c1` [Example 44, N-(2-(5-chloro-2-(2,3-dimethoxyphenylamino)pyrimidin-4-ylamino)-5-methoxyphenyl)methanesulfonamide], the IC50 fell in the range of 100 to 1000 nM.
Compound `COc1ccc(Nc2nc(Nc3cc(OC)cc(CO)c3OC)ncc2Cl)c(NS(C)(=O)=O)c1` [Example 96, N-(2-((5-chloro-2-((3-(hydroxymethyl)-2,5-dimethoxyphenyl)amino)pyrimidin-4-yl)amino)-5-methoxyphenyl)methanesulfonamide] displayed an IC50 of 100 to 1000 nM.
With `CS(=O)(=O)Nc1ccccc1Nc1nc(Nc2ccccc2OC(F)F)ncc1Br` [Example 6, N-(2-(5-bromo-2-(2-(difluoromethoxy)phenylamino)pyrimidin-4-ylamino)phenyl)methanesulfonamide], the IC50 fell in the range of 1000 to 10000 nM.
The compound `COc1ccc(Nc2nc(Nc3cc(C)ccc3OC)ncc2Cl)c(NS(C)(=O)=O)c1` [Example 56, N-(2-(5-chloro-2-(2-methoxy-5-methylphenylamino)pyrimidin-4-ylamino)-5-methoxyphenyl)methanesulfonamide] displayed a 50% inhibitory concentration (IC50) of 100 to 1000 nM.
The compound `COc1ccc(OCCO)cc1Nc1ncc(Cl)c(Nc2cccc(F)c2NS(C)(=O)=O)n1` [Example 116, N-(2-(5-chloro-2-(5-(2-hydroxyethoxy)-2-methoxyphenylamino)pyrimidin-4-ylamino)-6-fluorophenyl)methanesulfonamide] came in with an IC50 of 100 to 1000 nM.

By IC50 is commonly meant the point on the concentration scale where inhibition reaches its midpoint.
